Columns and labels:
[1] = CAP trial: plasma lipid, lipoprotein and apoprotein response to 40 mg/day simvastatin; format: in vivo, human; parameters: LDL-Cholesterol, Absolute Difference / HDL-Cholesterol, Absolute Difference / ApoA1, Absolute Difference / ApoB, Absolute Difference / IDL-Cholesterol, Absolute Difference: unit not given here; Total Cholesterol, Absolute Difference: unit: mg/dL; conditions: for ApoA1, Absolute Difference / ApoB, Absolute Difference / HDL-Cholesterol, Absolute Difference / IDL-Cholesterol, Absolute Difference / LDL-Cholesterol, Absolute Difference / Total Cholesterol, Absolute Difference: 40 mg/day simvastatin in vivo
Procedure: Patients and cell lines. The Cholesterol/Atherosclerosis Pharmacogenetics (CAP) trial was a non-randomized, non-blinded study of 944 African-American and Caucasian men and women age 30 or older with baseline total cholesterol of 160 to 400 mg/dL.
A subset of 66 African American patients from the CAP trial was chosen for testing of the HMGCR gene expression assay (Examples 1, 2, 3, 4 and 5). An African American was defined as an individual who had three or more grandparents who self-identified as African American. A Caucasian was defined as an individual who had three or more grandparents who self-identified as Caucasian American. The table below provides a summary of the demographics for this population.
The table below provides a summary of the population demographics.
A dose study was performed with a second subset of 60 African American patients (Examples 1, 3, 4, and 5). […] The population demographics for this group is shown below.

[2] = test system: total HMGCR (6-7) transcript; experiment: HMGCR gene expression by real time PCR in immortalized lymphocyte cell lines, exons 6 to 7 assay; format: cell-based, human; conditions: 24 hours
Procedure: Cell lines were grown at 37° C., 5% CO2 in RPMI Medium 1640 (Invitrogen) supplemented with 10% fetal bovine serum (Hyclone), 500 units/ml Penicillin/Streptomycin (Invitrogen) and 2 nM GlutaMAX (Invitrogen). […] Media was changed 24 hours prior to exposure to ensure the cultures were in an active growth phase. After exposure, cells were pelleted, resuspended in Trizol (Invitrogen), and stored at −80° C. until RNA extraction.
RNA isolation and cDNA synthesis. RNA was isolated from the cell/Trizol slurries following the manufacturer's protocol (Invitrogen). RNA quality was assessed by gel electrophoresis and A260/A280 measured via spectrophotometry. […]
Real time PCR standards were generated by amplifying 100 ng lymphocyte cDNA with 1×PCR buffer, 1.5 mM MgCl2, 0.5 mM dNTPs, 1 mM of each primer, and 0.125 units Taq DNA polymerase (Invitrogen). […] Eight PCR reactions for each standard was generated, pooled, and quantitated via gel electrophoresis using a DNA low mass ladder (Invitrogen). […] PCR standards were run in triplicate on each plate to serve as a positive control for the assay and to quantitate levels of gene expression.
SLC7A5 and CLPTM1 were quantitated in all samples by TaqMan assays purchased from Applied Biosystems (part numbers Hs0018526_m1 and Hs00171300_m1). […]
HMGCR(12-13) and spliced HMGCR(12-14) mRNA was quantified via real time PCR as described above.

[3] = Study Population A, African Americans, N 66
[4] = Study Population B, Caucasian Americans, N 43
[5] = Study Population C, African Americans, N 60
[6] = on statin therapy, data in Examples 1-5

## CCC(C)(C)C(=O)O[C@H]1C[C@@H](C)C=C2C=C[C@H](C)[C@H](CC[C@@H]3C[C@@H](O)CC(=O)O3)[C@H]21 [simvastatin]
[1]; African Americans, on statin therapy
  mean HDL-cholesterol increase: 0.96 mg/dL
[1]; Caucasian Americans, on statin therapy
  mean HDL-cholesterol increase: 2.17 mg/dL
[1]; [3]
  ApoA1, Absolute Difference: −1.69 ± 1.76
  ApoB, Absolute Difference: −27.11 ± 1.71
  HDL-Cholesterol, Absolute Difference: 0.96 ± 0.75
  IDL-Cholesterol, Absolute Difference: −9.06 ± 0.75
  LDL-Cholesterol, Absolute Difference: −51.17 ± 2.37
  Total Cholesterol, Absolute Difference: −54.48 ± 2.79
[1]; [4]
  ApoA1, Absolute Difference: −2.114 ± 2.271
  ApoB, Absolute Difference: −33.091 ± 2.700
  HDL-Cholesterol, Absolute Difference: 2.155 ± 0.904
  IDL-Cholesterol, Absolute Difference: −10.373 ± 1.066
  LDL-Cholesterol, Absolute Difference: −63.909 ± 3.455
  Total Cholesterol, Absolute Difference: −65.614 ± 3.791
[1]; [5]
  ApoA1, Absolute Difference: 2.80 ± 1.79
  ApoB, Absolute Difference: −28.03 ± 1.88
  HDL-Cholesterol, Absolute Difference: 1.98 ± 0.55
  IDL-Cholesterol, Absolute Difference: −10.23 ± 0.80
  LDL-Cholesterol, Absolute Difference: −55.74 ± 3.36
  Total Cholesterol, Absolute Difference: −57.73 ± 3.62
[1]; [6]
  mean IDL cholesterol reduction (printed: mean total cholesterol reduction): -9.85 mg/dL
  mean LDL-cholesterol reduction: -56.0 mg/dL
  mean total cholesterol reduction: -58.5 mg/dL
[2]; African American cell lines, 14.5 μM simvastatin
  up-regulation of HMGCR(6-7): 1.65±0.48 fold
[2]; cell lines derived from African Americans, 1.8 μM activated simvastatin
  total HMGCR (6-7) gene up-regulation, average fold change: 1.44 fold
